Data as given in publication PMC11079024, “Identification of a family of species-selective complex I inhibitors as potential anthelmintics” (Nature Communications, 2024).
Read-outs that look alike come from different tables or passages of the source.

How the values were obtained:
[1] = target: C. elegans (N2) complex I (NADH:ubiquinone oxidoreductase) (Caenorhabditis elegans, UniProt P24887+Q93873+Q94360); assay: biochemical; assay type: biochemical; details: for activity at 0.0001 µM / activity at 0.0005 µM / activity at 0.001 µM / activity at 0.0025 µM / activity at 0.005 µM / activity at 0.013 µM / activity at 0.025 µM / activity at 0.063 µM / activity at 0.125 µM / activity at 0.313 µM / activity at 0.625 µM / activity at 1.5 µM / activity at 3 µM / activity at 15 µM / activity at 37.5 µM / activity at 75 µM: read-out: C. elegans mitochondrial complex I activity; for Log IC50 C. elegans complex I: log10 of IC50 in µM, C. elegans mitochondria
Procedure, shortened: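 Mitochondria, 0.2 mg/mL protein, freeze-thawed three times, assayed in 25 mM KPi pH 7.5 with BSA, 80 μM NADH, 60 μM decylubiquinone, 160 μM DCIP, antimycin A and KCN. Rate from initial linear slope of A600 over 15 min. % of solvent control.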

[2] = target: B. taurus (heart) complex I (Bos taurus, UniProt P03887+P17694+P42026); assay: biochemical; assay type: biochemical; details: for IC50: read-out: B. taurus Complex I IC50; for activity at 0.0001 µM / activity at 0.0005 µM / activity at 0.001 µM / activity at 0.0025 µM / activity at 0.005 µM / activity at 0.013 µM / activity at 0.025 µM / activity at 0.063 µM / activity at 0.125 µM / activity at 0.313 µM / activity at 0.625 µM / activity at 1.5 µM / activity at 3 µM / activity at 15 µM / activity at 37.5 µM / activity at 75 µM: read-out: B. taurus mitochondrial complex I activity; for Log IC50 B. taurus complex I: log10 of IC50 in µM, B. taurus mitochondria
Procedure, shortened: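 Complex I activity followed as DCIP reduction (600 nm, 30 s reads, 15 min) with 80 μM NADH and 60 μM decylubiquinone in 25 mM KPi pH 7.5 containing 2 μM antimycin A and 2 mM KCN. Freeze-thawed mouse or bovine heart mitochondria at 0.2 mg/mL; initial-rate percent of solvent control, single-point 100 μM or dose-response.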

[3] = wild-type C. elegans mitochondria, mean of replicates, read-out: percent (%) in vitro complex I activity relative to solvent control
[4] = wild-type C. elegans mitochondria, single replicate, read-out: percent (%) in vitro complex I activity relative to solvent control
[5] = wild-type (N2) mitochondria, read-out: C. elegans Complex I IC50
[6] = B. taurus (heart) mitochondria, mean of replicates, read-out: percent (%) in vitro complex I activity relative to solvent control
[7] = B. taurus (heart) mitochondria, single replicate, read-out: percent (%) in vitro complex I activity relative to solvent control
[8] = in vitro complex I dose response on C. elegans mitochondria, average of at least two biological replicates, fit in R (DRC), read-out: IC50 C. elegans complex I
[9] = wild-type C. elegans mitochondria, read-out: C. elegans Complex I IC50
[10] = wild-type C. elegans mitochondria, estimated from fitted dose-response curves, read-out: C. elegans Complex I IC50
[11] = B. taurus heart mitochondria, estimated from fitted dose-response curves

B. taurus (heart) complex I, sequence (P03887 whole entry): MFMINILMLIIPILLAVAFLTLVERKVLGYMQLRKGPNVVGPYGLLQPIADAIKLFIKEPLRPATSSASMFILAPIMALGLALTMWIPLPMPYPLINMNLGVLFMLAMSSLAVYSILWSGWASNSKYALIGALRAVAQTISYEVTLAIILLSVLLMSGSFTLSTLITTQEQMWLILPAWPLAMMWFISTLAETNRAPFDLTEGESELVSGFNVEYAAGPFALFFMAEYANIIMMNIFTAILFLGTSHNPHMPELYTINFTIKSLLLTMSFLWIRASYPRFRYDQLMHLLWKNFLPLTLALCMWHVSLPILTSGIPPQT
B. taurus (heart) complex I, sequence (P17694 34-463): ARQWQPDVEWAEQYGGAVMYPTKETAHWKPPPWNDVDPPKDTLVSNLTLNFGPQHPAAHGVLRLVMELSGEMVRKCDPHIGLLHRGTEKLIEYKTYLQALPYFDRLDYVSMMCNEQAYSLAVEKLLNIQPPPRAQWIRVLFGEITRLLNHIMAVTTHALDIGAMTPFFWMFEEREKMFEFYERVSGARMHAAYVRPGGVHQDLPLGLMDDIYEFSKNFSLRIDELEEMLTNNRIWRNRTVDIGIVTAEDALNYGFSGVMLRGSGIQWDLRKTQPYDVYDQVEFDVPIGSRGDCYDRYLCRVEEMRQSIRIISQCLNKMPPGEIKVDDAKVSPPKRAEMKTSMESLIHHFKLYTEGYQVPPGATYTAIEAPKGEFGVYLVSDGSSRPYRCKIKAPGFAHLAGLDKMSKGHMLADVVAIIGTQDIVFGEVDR
B. taurus (heart) complex I, sequence (P42026 38-216): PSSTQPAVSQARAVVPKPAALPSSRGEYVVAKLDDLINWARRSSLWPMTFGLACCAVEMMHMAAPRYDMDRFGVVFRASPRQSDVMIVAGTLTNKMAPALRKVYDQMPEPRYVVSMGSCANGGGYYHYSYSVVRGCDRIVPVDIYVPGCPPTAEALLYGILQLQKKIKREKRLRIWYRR
C. elegans (N2) complex I (NADH:ubiquinone oxidoreductase), sequence (Q94360 17-199): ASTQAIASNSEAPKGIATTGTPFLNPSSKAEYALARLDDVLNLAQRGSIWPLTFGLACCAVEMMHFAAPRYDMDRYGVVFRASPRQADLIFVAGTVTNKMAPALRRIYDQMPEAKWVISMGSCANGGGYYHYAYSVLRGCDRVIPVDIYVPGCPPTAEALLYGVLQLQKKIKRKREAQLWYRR
C. elegans (N2) complex I (NADH:ubiquinone oxidoreductase), sequence (P24887 whole entry): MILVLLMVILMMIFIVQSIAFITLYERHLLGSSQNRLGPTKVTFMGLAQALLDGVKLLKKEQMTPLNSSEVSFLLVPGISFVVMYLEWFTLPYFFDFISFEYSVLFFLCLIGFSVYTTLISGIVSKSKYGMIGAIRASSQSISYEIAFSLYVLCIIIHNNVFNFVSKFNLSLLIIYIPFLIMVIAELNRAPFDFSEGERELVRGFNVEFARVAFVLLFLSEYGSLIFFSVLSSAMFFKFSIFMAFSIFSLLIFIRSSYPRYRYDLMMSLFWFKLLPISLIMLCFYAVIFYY
C. elegans (N2) complex I (NADH:ubiquinone oxidoreductase), sequence (Q93873 31-482): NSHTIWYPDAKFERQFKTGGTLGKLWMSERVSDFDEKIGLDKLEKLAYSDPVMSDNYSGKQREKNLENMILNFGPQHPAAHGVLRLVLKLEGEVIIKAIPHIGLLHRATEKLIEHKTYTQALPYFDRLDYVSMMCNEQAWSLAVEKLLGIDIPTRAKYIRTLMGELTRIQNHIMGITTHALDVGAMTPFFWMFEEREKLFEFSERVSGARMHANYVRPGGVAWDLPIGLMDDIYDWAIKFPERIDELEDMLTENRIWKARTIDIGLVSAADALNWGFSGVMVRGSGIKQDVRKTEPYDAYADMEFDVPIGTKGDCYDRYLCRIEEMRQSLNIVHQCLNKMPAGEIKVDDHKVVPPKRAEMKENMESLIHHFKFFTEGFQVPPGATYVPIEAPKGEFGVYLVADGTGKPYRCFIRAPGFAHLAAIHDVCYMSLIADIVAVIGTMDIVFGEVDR

## COc1ccc(Cc2nccc3cc(OC)c(OC)cc23)cc1OC [Papaverine, reference compound]
[1]; 0.125 µM, wild-type C. elegans mitochondria, mean of replicates, read-out: percent (%) in vitro complex I activity relative to solvent control
  remaining activity at 0.125 µM: 95.7%
[1]; [3]
  remaining activity at 0.313 µM: 87.5%
  remaining activity at 0.625 µM: 100%
  remaining activity at 1.5 µM: 81.8%
  remaining activity at 3 µM: 63.8%
[1]; [4]
  remaining activity at 0.313 µM: 85.7%
  remaining activity at 0.625 µM: 100%
  remaining activity at 1.5 µM: 81.5%
  remaining activity at 3 µM: 67.5%
[1]; 15 µM, wild-type C. elegans mitochondria, mean of replicates, read-out: percent (%) in vitro complex I activity relative to solvent control
  remaining activity at 15 µM: 22.1%
[1]; 37.5 µM, wild-type C. elegans mitochondria, mean of replicates, read-out: percent (%) in vitro complex I activity relative to solvent control
  remaining activity at 37.5 µM: 6.94%
[1]; 75 µM, wild-type C. elegans mitochondria, mean of replicates, read-out: percent (%) in vitro complex I activity relative to solvent control
  remaining activity at 75 µM: 7.49%
[1]; [5]
  IC50: 4.34 µM
[2]; [6]
  remaining activity at 0.125 µM: 93.4%
  remaining activity at 0.313 µM: 93.3%
  remaining activity at 0.625 µM: 91.6%
  remaining activity at 1.5 µM: 83.3%
  remaining activity at 75 µM: 6.58%
[2]; [7]
  remaining activity at 0.125 µM: 87.6%
  remaining activity at 0.313 µM: 92.3%
  remaining activity at 0.625 µM: 89.2%
  remaining activity at 1.5 µM: 88.4%
  remaining activity at 75 µM: 9.15%
[2]; 3 µM, B. taurus (heart) mitochondria, mean of replicates, read-out: percent (%) in vitro complex I activity relative to solvent control
  remaining activity at 3 µM: 76.1%
[2]; 15 µM, B. taurus (heart) mitochondria, mean of replicates, read-out: percent (%) in vitro complex I activity relative to solvent control
  remaining activity at 15 µM: 30.1%
[2]; 37.5 µM, B. taurus (heart) mitochondria, mean of replicates, read-out: percent (%) in vitro complex I activity relative to solvent control
  remaining activity at 37.5 µM: 12.9%
[2]; heart mitochondria
  IC50: 8.5 µM

## Cc1ccc(OCCn2cnc3ccccc32)cc1 [Compound 5671538]
[1]
  activity at 0.0001 µM: 97.2%
  activity at 0.0005 µM: 96.5%
  activity at 0.001 µM: 95.3%
  activity at 0.0025 µM: 106%
  activity at 0.005 µM: 90.9%
  activity at 0.013 µM: 104%
  activity at 0.025 µM: 98%
  activity at 0.063 µM: 92.5%
  activity at 0.125 µM: 91.2%
  activity at 0.313 µM: 90%
  activity at 0.625 µM: 88.7%
  activity at 1.5 µM: 79.2%
  activity at 3 µM: 75%
  activity at 15 µM: 18.9%
  activity at 37.5 µM: 23.9%
  activity at 75 µM: 13.8%
  Log IC50 C. elegans complex I: 0.73 µM
[1]; [8]
  IC50: 5.33 µM
[1]; [9]
  IC50: 5.33 µM
[2]; B. taurus heart mitochondria
  IC50: 17.4 µM
[2]
  activity at 0.0001 µM: 94.3%
  activity at 0.0005 µM: 97.5%
  activity at 0.001 µM: 95.2%
  activity at 0.0025 µM: 100%
  activity at 0.005 µM: 98.6%
  activity at 0.013 µM: 95.8%
  activity at 0.025 µM: 97.5%
  activity at 0.063 µM: 95%
  activity at 0.125 µM: 89.3%
  activity at 0.313 µM: 91.3%
  activity at 0.625 µM: 85.9%
  activity at 1.5 µM: 84.9%
  activity at 3 µM: 86.7%
  activity at 15 µM: 57.1%
  activity at 37.5 µM: 33.8%
  activity at 75 µM: 14.5%
  Log IC50 B. taurus complex I: 1.24 µM

## Cc1ccc(Cn2c(C(C)C)nc3ccccc32)cc1 [Compound 6586153]
[1]; [8]
  IC50: 9.43 µM
[1]
  Log IC50 C. elegans complex I: 0.97 µM
[1]; [5]
  IC50: 9.43 µM
[1]; [9]
  IC50: 9.43 µM
[2]; B. taurus heart mitochondria
  IC50: 57.6 µM
[2]
  Log IC50 B. taurus complex I: 1.76 µM

## Cc1nc2ccccc2n1Cc1ccccc1Cl [Compound 6707368]
[1]; [8]
  IC50: 0.56 µM
[1]
  Log IC50 C. elegans complex I: -0.25 µM
[1]; [5]
  IC50: 0.56 µM
[1]; [10]
  IC50: 0.56 µM
[2]; [11]
  IC50: 3.96 µM
[2]
  Log IC50 B. taurus complex I: 0.60 µM

## C=CCn1c(C(C)c2ccc(CC(C)C)cc2)nc2ccccc21 (stereo not shown) [STL020755]
[1]; [8]
  IC50: 2.27 µM
[1]
  Log IC50 C. elegans complex I: 0.36 µM
[1]; [5]
  IC50: 2.27 µM
[1]; [10]
  IC50: 2.27 µM
[2]; [11]
  IC50: 16.8 µM
[2]
  Log IC50 B. taurus complex I: 1.23 µM

## c1ccc(CCCCCCCCCCc2nc3ccccc3[nH]2)cc1 [STL442376]
[1]; [8]
  IC50: 2.33 µM
[1]
  Log IC50 C. elegans complex I: 0.37 µM
[1]; [10]
  IC50: 2.33 µM
[2]; [11]
  IC50: 3.32 µM
[2]
  Log IC50 B. taurus complex I: 0.52 µM

## CCc1cc(OCCn2cnc3ccccc32)ccc1Cl [Compound 7925288]
[1]
  activity at 0.0001 µM: 89.3%
  activity at 0.0005 µM: 90.8%
  activity at 0.001 µM: 94%
  activity at 0.0025 µM: 90.8%
  activity at 0.005 µM: 98.8%
  activity at 0.013 µM: 96.9%
  activity at 0.025 µM: 96.9%
  activity at 0.063 µM: 63.2%
  activity at 0.125 µM: 63.3%
  activity at 0.313 µM: 77.6%
  activity at 0.625 µM: 77.6%
  activity at 1.5 µM: 60.7%
  activity at 3 µM: 46.8%
  activity at 15 µM: 16.1%
  activity at 37.5 µM: 4.53%
  activity at 75 µM: 2.28%
  Log IC50 C. elegans complex I: 0.91 µM
[1]; [8]
  IC50: 8.09 µM
[1]; [9]
  IC50: 8.09 µM
[2]; B. taurus heart mitochondria
  IC50: 5.7 µM
[2]
  activity at 0.0001 µM: 89.8%
  activity at 0.0005 µM: 91.3%
  activity at 0.001 µM: 88.8%
  activity at 0.0025 µM: 86.3%
  activity at 0.005 µM: 84.5%
  activity at 0.013 µM: 89.2%
  activity at 0.025 µM: 82.7%
  activity at 0.063 µM: 84.2%
  activity at 0.125 µM: 82.8%
  activity at 0.313 µM: 79.8%
  activity at 0.625 µM: 84.6%
  activity at 1.5 µM: 75.4%
  activity at 3 µM: 61.1%
  activity at 15 µM: 17.7%
  activity at 37.5 µM: 2.74%
  activity at 75 µM: 1.27%
  Log IC50 B. taurus complex I: 0.76 µM
